Values after ≈ are worked out from the molar mass of the structure shown. Read-outs that look alike come from different tables or passages of the source.
Assays:
MRSA = assay: In vitro activity (MIC) against MRSA strains collected in 2005; type: cell-based, Staphylococcus aureus; details: for % resistance / % susceptible: CLSI (2007) criteria
[1] = system: susceptible Staphylococcus aureus (MSSA); assay: In vitro activity (MIC) against susceptible Staphylococcus aureus (MSSA) strains collected in 2005; type: cell-based; details: for % resistance / % susceptible: CLSI (2007) criteria
C. difficle = assay: In vitro activity (MIC) against 25 clinical strains of C. difficile; type: cell-based; details: for MIC50 / MIC90: Clostridioides difficile
[2] = North America 2005, 1,158 strains
[3] = North America and Europe 2005, 1,644 strains
[4] = Staphylococcus aureus, MRSA, North America 2005, 1,158 strains, read-out: MIC90
[5] = Staphylococcus aureus, MRSA, North America and Europe 2005, 1,644 strains, read-out: MIC50
[6] = Staphylococcus aureus, MRSA, North America and Europe 2005, 1,644 strains, read-out: MIC90
[7] = North America 2005, 1,232 strains
[8] = North America and Europe 2005, 2,276 strains
[9] = Staphylococcus aureus, MSSA, North America and Europe 2005, 2,276 strains, read-out: MIC50
[10] = Staphylococcus aureus, MSSA, North America and Europe 2005, 2,276 strains, read-out: MIC90

SMILES	MIC50 (MRSA; [2])	% resistance (MRSA; [2]) [%]	% susceptible (MRSA; [2]) [%]	% resistance (MRSA; [3]) [%]	% susceptible (MRSA; [3]) [%]	MIC90 (MRSA; [4]) [mg/L]	MIC50 (MRSA; [5]) [mg/L]	MIC90 (MRSA; [6]) [mg/L]	MIC50 ([1]; Europe 2005, 1,044 strains)	MIC90 ([1]; Europe 2005, 1,044 strains)	% resistance ([1]; Europe 2005, 1,044 strains) [%]	% susceptible ([1]; Europe 2005, 1,044 strains) [%]	MIC50 [1, 7]	MIC90 [1, 7]	% resistance [1, 7] [%]	% susceptible [1, 7] [%]	% resistance [1, 8] [%]	% susceptible [1, 8] [%]	MIC50 [1, 9] [mg/L]	MIC90 [1, 10] [mg/L]	further results
CCC[C@@H]1C[C@@H](C(=O)N[C@@H]([C@H]2O[C@H](SC)[C@H](O)[C@@H](O)[C@H]2O)[C@H](C)Cl)N(C)C1 [Clindamycin]	≦0.25 μg/ml	44.3	55.5	45.3	54.6	> 2	≤ 0.25	> 2	≦0.25 μg/ml	≦0.25 μg/ml	3.2	96.6	≦0.25 μg/ml	≦0.25 μg/ml	4.8	95.0	4.0	95.7	≤ 0.25	≤ 0.25	
CC[C@H]1OC(=O)[C@H](C)[C@@H](O[C@H]2C[C@@](C)(OC)[C@@H](O)[C@H](C)O2)[C@H](C)[C@@H](O[C@@H]2O[C@H](C)C[C@H](N(C)C)[C@H]2O)[C@](C)(O)C[C@@H](C)C(=O)[C@H](C)[C@@H](O)[C@]1(C)O [Erythromycin]	>8 mg/L	94.8	4.8	89.2	10.2	> 8	> 8	> 8		>8 mg/L	13.3	86.2		>8 mg/L	28.0	70.8	21.3	77.9		> 8	
C[C@H]1COc2c(N3CCN(C)CC3)c(F)cc3c(=O)c(C(=O)O)cn1c23 [Levofloxacin]	>4 mg/L	71.7	26.4	77.4	20.6	> 4	> 4	> 4	≦0.5 μg/ml	≦0.5 μg/ml	6.8	93.0	≦0.5 μg/ml	≦0.5 μg/ml	6.6	93.0	6.7	93.0	≤ 0.5	≤ 0.5	
Cc1ncc([N+](=O)[O-])n1CCO [Metronidazole]																					% resistant (C. difficle; 25 clinical strains): 00%; % susceptible (C. difficle; 25 clinical strains): 100%; MIC50 (C. difficle): 0.25 µM (≈ 0.0428 µg/mL); MIC90 (C. difficle): 0.5 µM (≈ 0.0856 µg/mL)
CN(C)[C@@H]1C(O)=C(C(N)=O)C(=O)[C@@]2(O)C(O)=C3C(=O)c4c(O)cccc4[C@@](C)(O)[C@H]3C[C@@H]12 [Tetracycline]	≦2 μg/ml	7.0	92.5	10.3	88.8	≤ 2	≤ 2	> 8	≦2 μg/ml	≦2 μg/ml	6.5	93.3	≦2 μg/ml	≦2 μg/ml	2.7	96.8	4.4	95.2	≤ 2	≤ 2	
CN[C@H](CC(C)C)C(=O)N[C@H]1C(=O)N[C@@H](CC(N)=O)C(=O)N[C@H]2C(=O)N[C@H]3C(=O)N[C@H](C(=O)N[C@H](C(=O)O)c4cc(O)cc(O)c4-c4cc3ccc4O)[C@H](O)c3ccc(c(Cl)c3)Oc3cc2cc(c3O[C@@H]2O[C@H](CO)[C@@H](O)[C@H](O)[C@H]2O[C@H]2C[C@](C)(N)[C@H](O)[C@H](C)O2)Oc2ccc(cc2Cl)[C@H]1O [Vancomycin]	1 mg/L (≈ 0.69 µM)	0.0	100	0.0	100		1 (≈ 0.69 µM)	1 (≈ 0.69 µM)	1 mg/L (≈ 0.69 µM)	1 mg/L (≈ 0.69 µM)	0.0	100	1 mg/L (≈ 0.69 µM)	1 mg/L (≈ 0.69 µM)	0.0	100	0.0	100	1 (≈ 0.69 µM)	1 (≈ 0.69 µM)	MIC90 (MRSA; [2]): 1 mg/L (≈ 0.69 µM); Range (MIC) ([1]; Europe 2005, 1,044 strains): ≦0.12-2; Range (MIC) [1, 7]: ≦0.25-2; Range (MIC) [1, 8]: ≦0.12-2
O=C(N[C@H](CO)[C@H](O)c1ccc([N+](=O)[O-])cc1)C(Cl)Cl [chloramphenicol, Chloramphenicol]	8 mg/L (≈ 24.8 µM)	0.4	92.3	1.9	91.5	8 (≈ 24.8 µM)	8 (≈ 24.8 µM)	8 (≈ 24.8 µM)	8 mg/L (≈ 24.8 µM)	8 mg/L (≈ 24.8 µM)	1.4	98.4	8 mg/L (≈ 24.8 µM)	8 mg/L (≈ 24.8 µM)	0.0	99.4	0.7	98.9	8 (≈ 24.8 µM)	8 (≈ 24.8 µM)	% resistant (C. difficle; 25 clinical strains): 8.0%; % susceptible (C. difficle; 25 clinical strains): 88.0%; MIC50 (C. difficle; 25 clinical strains, read-out: MIC50): 4 µM (≈ 1.29 µg/mL); MIC90 (C. difficle; 25 clinical strains, read-out: MIC90): 16 µM (≈ 5.17 µg/mL)
